# Assay results: US6391847B1, “Method, polypeptides, nucleotide sequence of XOR-6, a vitamin D-like receptor from xenopus” (The Salk Institute for Biological Studies, priority 1995, dated 2002)
# T1: xRXRα (Xenopus laevis, UniProt P51128)
# T1 construct: made in house; host or cells: coupled in vitro transcription/translation (TNT, Promega)
# T1 sequence (P51128 1-488): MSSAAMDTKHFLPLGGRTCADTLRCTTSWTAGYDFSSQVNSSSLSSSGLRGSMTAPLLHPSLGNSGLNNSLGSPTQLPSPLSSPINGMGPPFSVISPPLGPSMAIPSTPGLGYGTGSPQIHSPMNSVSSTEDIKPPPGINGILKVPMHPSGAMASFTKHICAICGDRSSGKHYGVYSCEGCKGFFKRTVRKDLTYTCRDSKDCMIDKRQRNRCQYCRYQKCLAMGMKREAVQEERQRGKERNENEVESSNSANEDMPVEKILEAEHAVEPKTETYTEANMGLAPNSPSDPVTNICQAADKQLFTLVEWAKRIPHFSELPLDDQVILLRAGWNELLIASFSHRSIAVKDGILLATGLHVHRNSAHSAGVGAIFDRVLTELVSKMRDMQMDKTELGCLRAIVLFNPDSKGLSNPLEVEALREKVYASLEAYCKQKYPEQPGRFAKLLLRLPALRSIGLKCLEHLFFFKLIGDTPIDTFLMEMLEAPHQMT
# B1: full-length XOR-6: Xenopus Orphan Receptor 6, about 386 amino acids (SEQ ID NO:2), overexpressed from plasmid (protein)
# chain: MWKVQETLVLEEEEEEEDASNSCGTGEDEDDGDPKICRACGDRATGYHFNAMTCEGCKGFFRRAVKRNLRLSCPFQNSCVINKSNRRHCQACRLKKCLDIGMRKELIMSDAAVEQRRALIKRKHKLTKLPPTPPGASLTPEQQHFLTQLVGAHTKTFDFNFTFSKNFRPIRRSSDPTQEPQATSSEAFLMLPHISDLVTYMIKGIISFAKMLPYFKSLDIEDQIALLKGSVAEVSVIRFNTVFNSDTNTWECGPFTYDTEDMFLAGFRQLFLEPLVRIHRMMRKLNVQSEEYAMMAALSIFASYRPGVCDWEKIQKLQEHIALTLKDFIDSQRPPSPQNRLLYPKIMECLTELRTVNDIHSKQLLEIWDIQPDATPLMREVFGSPE
# B2: GAL-XOR-6: GAL4 fusion with amino acids 103 to 386 of XOR-6 (pCMX-GAL4-XOR6) (protein)
# chain: RKELIMSDAAVEQRRALIKRKHKLTKLPPTPPGASLTPEQQHFLTQLVGAHTKTFDFNFTFSKNFRPIRRSSDPTQEPQATSSEAFLMLPHISDLVTYMIKGIISFAKMLPYFKSLDIEDQIALLKGSVAEVSVIRFNTVFNSDTNTWECGPFTYDTEDMFLAGFRQLFLEPLVRIHRMMRKLNVQSEEYAMMAALSIFASYRPGVCDWEKIQKLQEHIALTLKDFIDSQRPPSPQNRLLYPKIMECLTELRTVNDIHSKQLLEIWDIQPDATPLMREVFGSPE
# modifications: left off: large carriers
# How the values were obtained:
# GAL-XOR-6 = assay: cotransfection assay, activation of GAL-XOR6 in CV-1 cells; assay type: cell-based, Xenopus laevis; details: for rank order potency of activation, esters differing in alkyl length (FIG. 3): 10^−6M of each compound; for activation of GAL-XOR-6 by agonist cocktail: cocktail: thyroid hormone 10^−7M, vitamin D3 10^−7M, all-trans RA 10^−6M, WY-14,643 5×10^−6M
# Procedure: FIG. 3 illustrates the activation of XOR-6 by a variety of amino benzoate derivatives. Thus, 10^−6M of each compound was tested in the co-transfection assay for its ability to activate GAL-XOR6.
# It can be concluded, therefore, that XOR-6 defines a novel RXR-dependent, ligand-mediated signalling pathway.
# pCMX-GAL4-XOR6 was constructed by cloning nucleotides encoding amino acids 103 to 386 of XOR-6 into the SalI to XbaI sites of pCMX-GAL4 (see U.S. Ser. No. 08/177,740).
# (§1) CV-1 cells were maintained in DMEM containing 10% resin-charcoal stripped fetal bovine serum. Liposome-mediated transient transfections were performed using DOTAP reagent (Boehringer Manheim) at a concentration of 5 μg/ml in Opti-MEM (Gibco). After 12-18 hours, the cells were washed and fresh DMEM-10% serum was added, including receptor agonists if required. After a further 48 hour incubation, the cells were lysed and luciferase reporter gene assays and β-galactosidase transfection control assays performed. Reporter gene expression is normalized to the β-galactosidase transfection control and expressed as relative light units per O.D. per minute of β-galactosidase activity.
# XOR-6 = assay: cotransfection assay, activation of XOR-6 in transfected CV-1 cells; assay type: cell-based, Xenopus laevis; details: for rank order potency of XOR-6 activation, ortho/meta/para amino ethyl benzoates: cotransfection assay; for activation of XOR-6 (agonist activity in the cotransfection assay): transfected CV-1 cells
# Procedure: A search for the XOR-6 ligand was instituted based on the presumption that the receptor and its ligand must be co-expressed at some time during development. Accordingly, an unbiased, bioassay directed screen for XOR-6 agonists was undertaken in HPLC fractionated organic extracts derived from a mixture of developmental stages. Total lipid extracts from a mixture of embryonic stages from fertilized eggs through swimming tadpoles were prepared and tested for the ability to activate both GAL-XOR6 or full-length XOR-6 in transfected CV-1 cells.
# The total extract was partitioned between iso-octane and MeOH and again tested for bioactivity.
# A suitable eukaryotic expression vector for use herein was constructed from the commercially available vector pCDNAI-AMP (Invitrogen). This vector allows expression from the strong cytomegalovirus early promoter, and bacteriophage T7 and SP6 promoter-driven production of sense and antisense RNA, respectively.
# The cloning strategy employed was as follows: the three endogenous NcoI sites were removed by site directed mutagenesis, the polylinker region between XhoI and XbaI was removed by double digestion, endfilling and self ligation. […] The resulting plasmid, designated pCDG1, can be linearized with NotI to produce mRNA from the bacteriophage T7 promoter. The XOR-6 protein coding region was cloned between the NcoI and BamHI sites of pCDG1 and designated pCDG-XOR6.
# as §1
# XOR6:xRXRα heterodimer = assay: co-transfection experiments, responsiveness of heterodimer to two ligands; assay type: cell-based, Xenopus laevis; details: receptor dependent manner
# Procedure: Receptors were transfected into cells and incubated with the indicated concentrations of agonists.
# A potentially significant property of the XOR6:xRXRα heterodimer is its responsiveness to two ligands. […] This synergism occurs at several dilutions of the XOR-6 agonist and concentrations of 9-cis RA (see FIG. 4). […] Such complexes would be ideal candidates for responding to combinations of graded morphogenetic signals during development.
# as §1
# xRXRα = molecular target: T1, xRXRα; assay: protease protection assay (ligand binding), parallel experiment; details: parallel experiment with xRXRα
# Description: Biol. 14:287-298 (1994) was utilized.
# βRARE = assay: interference of XOR-6 overexpression with retinoic acid signalling through βRARE in CV-1 cells; assay type: cell-based; details: 1 μg expression plasmid co-transfected into CV-1 cells with 5 μg tk-β REx2-luc, all-trans retinoic acid
# Procedure: 1 μg of XOR-6 expression plasmid was co-transfected into CV-1 cells with 5 μg of tk-β REx2-luc, and challenged with the indicated concentrations of all-trans retinoic acid.
# Because XOR-6:RXR heterodimers bind well to a retinoic acid response element, βRARE, it was tested whether overexpression of XOR-6 could influence retinoic acid signalling through this element. […] This effect was strongest with full-length XOR-6 (24% of wild-type activity) but still detectable with GAL-XOR-6 (44% of wild-type activity).
# as §1
molecule,measurement,setting,value
"CCOC(=O)c1ccc(N)cc1 [4-AEB, 4-amino-ethyl benzoate]","rank order potency of activation, esters differing in alkyl length (FIG. 3)",GAL-XOR-6,4-amino-butyl benzoate>3-amino-ethyl benzoate>4-amino-ethyl benzoate>>4-amino methyl benzoate
same,"rank order potency of XOR-6 activation, ortho/meta/para amino ethyl benzoates",XOR-6,3-AEB>4-AEB>>2-AEB
same,activation of XOR-6 (agonist activity in the cotransfection assay),XOR-6,activated
"Nc1cccc(C(=O)O)c1 [3-amino benzoic acid, reference compound]",activation of XOR-6 (agonist activity in the cotransfection assay),XOR-6,"not possible, however, to demonstrate XOR-6 activation"
COC(=O)c1ccc(N)cc1 [4-amino methyl benzoate],"rank order potency of activation, esters differing in alkyl length (FIG. 3)",GAL-XOR-6,4-amino-butyl benzoate>3-amino-ethyl benzoate>4-amino-ethyl benzoate>>4-amino methyl benzoate
"Nc1ccccc1C(=O)O [2-amino benzoic acid, reference compound]",activation of XOR-6 (agonist activity in the cotransfection assay),XOR-6,"not possible, however, to demonstrate XOR-6 activation"
"Nc1cccc(C(=O)O)c1O [3-amino salicylic acid, reference compound]",activation of XOR-6 (agonist activity in the cotransfection assay),XOR-6,"not possible, however, to demonstrate XOR-6 activation"
"Cc1cccc(Nc2cc(Cl)nc(SCC(=O)O)n2)c1C [WY-14,643, reference compound]",activation of GAL-XOR-6 by agonist cocktail,GAL-XOR-6,not activated
"Nc1ccc(C(=O)O)cc1 [4-amino benzoic acid, 4-amino-benzoic acid, reference compound]",activation of XOR-6 (agonist activity in the cotransfection assay),XOR-6,"not possible, however, to demonstrate XOR-6 activation"
"CC1=C(/C=C/C(C)=C\C=C\C(C)=C\C(=O)O)C(C)(C)CCC1 [9-cis RA, 9-cis retinoic acid]",stimulation of reporter gene expression,XOR6:xRXRα heterodimer,stimulated reporter gene expression
"Nc1ccc(C(=O)O)c(O)c1 [4-amino salicylic acid, reference compound]",activation of XOR-6 (agonist activity in the cotransfection assay),XOR-6,"not possible, however, to demonstrate XOR-6 activation"
"CC1=C(/C=C/C(C)=C/C=C/C(C)=C/C(=O)O)C(C)(C)CCC1 [all-trans RA, all-trans retinoic acid, reference compound]",activation of GAL-XOR-6 by agonist cocktail,GAL-XOR-6,not activated
"C=C1CC[C@H](O)C/C1=C/C=C1\CCC[C@]2(C)[C@@H]([C@H](C)CCCC(C)C)CC[C@@H]12 [vitamin D3, reference compound]",activation of GAL-XOR-6 by agonist cocktail,GAL-XOR-6,not activated
CCOC(=O)c1cccc(N)c1 [3-AEB],"rank order potency of activation, esters differing in alkyl length (FIG. 3)",GAL-XOR-6,4-amino-butyl benzoate>3-amino-ethyl benzoate>4-amino-ethyl benzoate>>4-amino methyl benzoate
same,protection from trypsin cleavage,xRXRα,not seen
same,specificity of activation among an extensive collection of vertebrate nuclear receptors,XOR-6,specifically activates XOR-6 alone
same,activation of XOR-6 (agonist activity in the cotransfection assay),XOR-6,potent agonist
same,activation of XOR-6 (agonist activity in the cotransfection assay),XOR-6; listed as meta amino ethyl benzoate,activated
CCOC(=O)c1ccccc1N [2-AEB],"rank order potency of XOR-6 activation, ortho/meta/para amino ethyl benzoates",XOR-6,3-AEB>4-AEB>>2-AEB
same,activation of XOR-6 (agonist activity in the cotransfection assay),XOR-6,activated
CCCCOC(=O)c1ccc(N)cc1,"rank order potency of activation, esters differing in alkyl length (FIG. 3)",GAL-XOR-6,4-amino-butyl benzoate>3-amino-ethyl benzoate>4-amino-ethyl benzoate>>4-amino methyl benzoate
"N[C@@H](Cc1cc(I)c(Oc2ccc(O)c(I)c2)c(I)c1)C(=O)O [thyroid hormone, reference compound]",activation of GAL-XOR-6 by agonist cocktail,GAL-XOR-6,not activated
B1,retinoic acid-responsiveness of βRARE promoter on co-expression,βRARE,24 % of wild-type activity
B2,retinoic acid-responsiveness of βRARE promoter on co-expression,βRARE,44 % of wild-type activity
